What was measured:
Masugi nephritis = experiment: Anti-albuminuria activity in Masugi nephritis (Pharmacological Test-3); format: in vivo, rat; conditions: oral; for Ratio of inhibition of albuminuria: 24 hours after NT, versus control; for Albuminuria: urine 24 hours after NT, mean±S.E., six rats, control 120 ± 30
Method: Anti-albuminuria activity of the pyrazinoxide compound of NF-1616-904 in Masugi nephritis
Rat nephrotoxin (hereinafter referred to as "NT") was prepared as follows. Thus, the kidney cortex of a rat was homogenized with an equal amount of physiological saline, then the thus obtained homogenate was admixed with Freund's complete adjuvant (manufacture by Difco Laboratories, Inc., Detroit, Mich., U.S.A.) in the ratio of 1:1. Then, 2 ml of this mixture was administered subcutaneously to a rabbit (body weight: 3.1 kg) to have said rabbit immunized. 1.5 Months after the immunization, the blood was sampled from the heart of said rabbit, and the serum was obtained thereform. The serum thus obtained was inactivated at 56° C. for 30 minutes, and subjected to fractionation by salting out with a aqueous solution saturated with 40% of ammonium sulfate. By sampling of immunoglobulin-γ-globulin (IgG) fraction, the desired NT was obtained.
This test was conducted by using Wisterstrain male rats having 150-160 g body weight. Pyrazinoxide compound of NF-1616-904 of the present invention […] were orally administered forcedly. Additionally, 1 ml of NT was administered intravenously to the tail vein of said rat. On the other hand, in place of pyrazinoxide compound of NF-1616-904, physiological saline was administered to other rats to make the control group.
The total amount of urinary protein being excreted in the urine during 24 hours after the administration of NT was determined by turbidity method using sulfosalicylic acid and bovine serum albumin (BSA) as the reference substance, according to procedures described in an article by F. Kingsbury, et al. in J. Lab. Clin. Med., Vol. 11, (1926), pages 981-989.
The ratio of inhibition of albuminuria (%) in the test group was calculated by referring to the measured value in the control group. The test results are shown in the following Table 2, in which each of the test data are shown at the mean value±S. E. of the six rats used in each of test and control groups.

[1] = test system: superoxide radicals (O2^-) release from the peritoneal macrophage cells of guinea pig; experiment: Inhibitory effect against superoxide radicals (O2^-) release from peritoneal macrophage cells by FMLP stimulation, cytochrome C reduction (Pharmacological Test-2); format: cell-based; conditions: Cavia porcellus, Peritoneal macrophage cell; FMLP 10^-7 M; 2×10^6 cells/ml; OD550; read-out: 50% inhibitory concentration (IC50)
Method: Inhibitory effect of the pyrazinoxide compound of NF-1616-904 against superoxide radicals (O2^-) release from the peritoneal macrophage cells of guinea pig by stimulation:
Mineral oil was intraperitoneally administered to a guinea pig, then 96 hours after the administration, the peritoneal microphage cells were obtained.
Superoxide radicals (O2^-) were determined by means of reduction of cytochrome C according to the procedures described in an article by T. Matsumoto, et al. in Biochemical and Biophysical Research Communications, Vol. 88, No. 3 (1979), pages 974-979.
Thus, the peritoneal macrophage cells were added to make the final concentration of 2×10^6 cells/ml into 1 ml of 80 μM-cytochrome C solution, further the pyrazinoxide compound of NF-1616-904 was added thereto to make the test group sample. On the other hand, water added in place of the pyrazinoxide compound of NF-1616-904 to make the control group sample. Both test group and control group samples were subjected to a pure incubation at 37° C. for 1 minute.
As to the stimulating agent for releasing superoxide radicals (O2^-), formylmethionylleucylphenylalanine (FMLP) was added to make the final concentration of 10^-7 M into the above-mentioned test group sample and control group sample. Then, both samples were subjected to additional reaction for 1 minute. […]

P388/VCR cells = experiment: Effect for decreasing the tolerance against Vincristine in P388/VCR cells (Pharmacological Test-1); format: cell-based; conditions: Control group, NF-1616-902 0; 48 hours
Source text: Effect for decreasing the tolerance against Vincristine in P388/VCR cells

Compound | Ratio of inhibition of albuminuria (Masugi nephritis; 30 mg/kg) [%] | Albuminuria (Masugi nephritis; 30 mg/kg) [mg/day] | Ratio of inhibition of albuminuria (Masugi nephritis; 60 mg/kg) [%] | Albuminuria (Masugi nephritis; 60 mg/kg) [mg/day] | IC50 [1] [µM] | Cytotoxic concentration of Vincristine (P388/VCR cells) [ng/mL]
COc1c(Cc2c[nH]c3ccccc23)[nH]c(=O)c(CC(C)C)[n+]1[O-] [NF-1616-904] | 62.5 | 45 ± 16 | 26.7 | 88 ± 18 | 12 | –
CC[C@]1(O)C[C@H]2CN(CCc3c([nH]c4ccccc34)[C@@](C(=O)OC)(c3cc4c(cc3OC)N(C=O)[C@H]3[C@@](O)(C(=O)OC)[C@H](OC(C)=O)[C@]5(CC)C=CCN6CC[C@]43[C@@H]65)C2)C1 [Vincristine] | – | – | – | – | – | 100

Reference: US5021419A, “Novel pyrazinoxide compound of NF-1616-904 and a pharmaceutical composition containing the same” (Otsuka Pharmaceutical Co., Ltd., priority 1987, dated 1991)
